13 molecules from ChEMBL document CHEMBL3108690, “Discovery and characterization of a novel dihydroisoxazole class of α-amino-3-hydroxy-5-methyl-4-isoxazolepropionic acid (AMPA) receptor potentiators” (J Med Chem, 2013) can be followed below.

The nature of data set [1]: Apparent permeability in MDCK cells. In kind it is ADME, cell-based, Canis lupus familiaris. To be noted: dog.
The nature of data set [2]: Positive allosteric modulation of AMPAR in mouse embryonic stem cell-derived neurons assessed as intracellular Ca2+ flux by FLIPR assay. In kind it is cell-based. (Calcium flux is commonly read through the fluorescence of an indicator in the cells.)
Data set [3] is described as follows: Apparent intrinsic clearance in human liver microsomes. In kind it is ADME. To be noted: read-out: CLH(app). In general terms: Liver microsomes are a subcellular fraction often used to study metabolism.
For the next data set, the system named is MDR1. Kind of data set: Efflux ratio of apparent permeability in MDCK cells expressing MDR1. In kind it is ADME, cell-based, Canis lupus familiaris. To be noted: dog.
For another data set, the system named is human MDR1. Kind of data set: Efflux ratio of apparent permeability from basolateral to apical side over apical to basolateral side in MDCK cells transfected with human MDR1 at 2 uM. To be noted: dog. In kind it is ADME, cell-based, Canis lupus familiaris.
Data set [4] can be described thus: Apparent permeability from apical to basolateral side in MDCK cells at 2 uM by LC-MS/MS analysis. In kind it is ADME, cell-based, Canis lupus familiaris. To be noted: dog.
Data set [5] is described as follows: Displacement of [3H]PF-04725379 from Sprague-Dawley rat AMPAR after 2 hrs by liquid scintillation counting analysis. (Loss of bound radioactivity is the signal in a displacement assay; it reports binding, not function.)
Data set [6] is filed under the species Mus musculus. In words: Positive allosteric modulation of AMPAR in mouse embryonic stem cell-derived neurons assessed as intracellular Ca2+ flux by FLIPR assay in presence of cyclothiazide relative to AMPA. In kind it is cell-based.
Data set [7] in a line: Ratio of drug level from brain to plasma in CD-1 mouse at 0.1 mg/kg, sc qd measured after 0.5 hrs. In kind it is ADME, organism-based. The note with it: read-out: BPR. On the set-up: dose 0.1 mg/kg, route subcutaneous.
The nature of data set [8]: Ratio of unbound concentration in brain required to cause induction of cGMP level in CD-1 mouse cerebellum at 0.32 mg/kg, sc over unbound concentration in brain required to cause reversal of MK-801-mediated increase in low delta component of local field potential in Sprague-Dawley rat at 0.003 mg/kg, iv administered as bolus dose. In kind it is functional.
Data set [9] in a line: Terminal half life in Sprague-Dawley rat plasma at 0.2 mg/kg, sc qd. In kind it is ADME, organism-based. Further details: dose 0.2 mg/kg, route subcutaneous. The note with it: read-out: beta t1/2 (converted).
Data set [10] deals with Rattus norvegicus. In words: Toxicity in Sprague-Dawley rat assessed as induction of convulsion at 0.32 to 0.56 mg/kg, sc measured after 13 to 23 mins. To be noted: in vivo. In kind it is organism-based. Further details: route subcutaneous.
Data set [11] concerns Mus musculus. In words: Ratio of unbound concentration in brain required to cause convulsion in CD-1 mouse at 0.32 to 0.56 mg/kg, sc to unbound concentration in brain required to cause induction of cGMP level in CD-1 mouse cerebellum at 0.32 mg/kg, sc.
For data set [12], the system named is Rattus norvegicus. Kind of data set: Reversal of MK-801-mediated decrease in paired-pulse facilitation in Sprague-Dawley rat at 0.003 mg/kg, iv administered as bolus dose measured after 5 mins. In kind it is functional, organism-based. Further details: dose 0.003 mg/kg.
The test system of data set [13] is Mus musculus. In words: Induction of cGMP level in sc dosed CD-1 mouse cerebellum administered as qd measured after 0.5 hrs by EIA. In kind it is functional, organism-based.
A short description of data set [14]: Terminal half life in Sprague-Dawley rat brain at 0.2 mg/kg, sc qd. In kind it is ADME, organism-based. Further details: dose 0.2 mg/kg, route subcutaneous. To be noted: read-out: beta t1/2 (converted).
Data set [15] in a line: Ratio of total drug level from brain to plasma in Sprague-Dawley rat at 0.2 mg/kg, sc qd. In kind it is ADME, organism-based. Further details: dose 0.2 mg/kg, route subcutaneous. To be noted: read-out: BPR.
The nature of data set [16]: Ratio of free drug level from brain to plasma in Sprague-Dawley rat at 0.2 mg/kg, sc qd. In kind it is ADME, organism-based. Further details: dose 0.2 mg/kg, route subcutaneous. To be noted: read-out: K(p,uu,brain).
For data set [17], the system named is Rattus norvegicus. Kind of data set: Toxicity in Sprague-Dawley rat assessed as induction of tremor at 0.32 to 0.56 mg/kg, sc measured at 10 mins. Further details: dose 0.32-0.56 mg/kg, route subcutaneous. In kind it is organism-based. The note with it: in vivo.
In data set [18] the test system is Mus musculus. In words: Toxicity in CD-1 mouse assessed as induction of convulsion at 0.32 to 0.56 mg/kg, sc measured after 5 to 11 mins. To be noted: in vivo. In kind it is organism-based. Further details: route subcutaneous.
Data set [19] can be described thus: Fraction unbound in Sprague-Dawley rat brain at 0.01 mg/kg, iv. In kind it is ADME, organism-based. On the set-up: dose 0.01 mg/kg, route intravenous.
Data set [20] concerns Rattus norvegicus. Kind of data set: Reversal of MK-801-mediated increase in low delta component of local field potential in Sprague-Dawley rat at 0.003 mg/kg, iv administered as bolus dose measured after 5 mins. On the set-up: dose 0.003 mg/kg. In kind it is functional, organism-based.
Data set [21] is described as follows: Therapeutic index, ratio of unbound concentration in brain required to cause convulsion in Sprague-Dawley rat at 0.32 to 0.56 mg/kg, sc to unbound concentration in brain required to cause reversal of MK-801-mediated increase in low delta component of local field potential in Sprague-Dawley rat at 0.003 mg/kg, iv administered as bolus dose. In kind it is organism-based. To be noted: read-out: TI.

The test system of data set [22] is Rattus norvegicus. Kind of data set: Reversal of MK-801-mediated increase in low delta component of local field potential in Sprague-Dawley rat at 0.001 mg/kg, iv administered as bolus dose measured after 5 mins. In kind it is functional, organism-based. On the set-up: dose 0.001 mg/kg.
Data set [23] can be described thus: Fraction unbound in Sprague-Dawley rat plasma at 0.01 mg/kg, iv. In kind it is ADME, organism-based. On the set-up: dose 0.01 mg/kg, route intravenous.
The test system of data set [24] is Rattus norvegicus. Kind of data set: Reversal of MK-801-mediated decrease in paired-pulse facilitation in Sprague-Dawley rat at 0.001 mg/kg, iv administered as bolus dose measured after 5 mins. In kind it is functional, organism-based. Further details: dose 0.001 mg/kg.

Active and inactive are the calls of the source. No cut-off for these calls is given here. A value given as a limit tells only on which side of the number the result lay.

With `CC(=O)NC[C@@H]1CC(c2ccc(N3CCCC3)c(F)c2)=NO1`, the Papp in data set [1] amounted to 35 ×10⁻⁶ cm/s. In addition, the EC50 in data set [2] worked out at 4400 nM. Further, the microsomal CLint in [3] is 26 µL/min/mg. The efflux ratio with MDR1 was determined as 0.98.
For the molecule `CC(C)S(=O)(=O)NC[C@@H]1CC(c2ccc(-c3ccccc3C#N)c(F)c2)=NO1`, in the data set on human MDR1, the efflux ratio at 2 µM was found to be 1.18. The concentration giving a half-maximal response (EC50) in [2] was less than 10 nM. For the same molecule, in data set [4], the Papp A→B at 2 µM is 29.1 ×10⁻⁶ cm/s. Affinity in data set [5] was put at a Ki of 24 nM.
On to `CC(C)S(=O)(=O)NCC1CC(c2ccc(-c3ccccc3C#N)c(F)c2)=NO1` (racemic), for which the efflux ratio at 2 µM with human MDR1 was 1.16. In addition, in the data set filed under Mus musculus [6], the Emax stood at 152%. For the same molecule, in [2], the EC50 was determined as 86.9 nM. The Papp A→B at 2 µM in data set [4] is 12.9 ×10⁻⁶ cm/s.
For the molecule `CC(C)S(=O)(=O)NCC1CC(c2ccc(N3CCCC3)cc2)=NO1` (racemic), in the data set on human MDR1, the efflux ratio at 2 µM came out at 0.89. In addition, the Emax in the data set filed under Mus musculus [6] turned out to be 169%. For the same molecule, the EC50 in data set [2] was determined as 253 nM.
On to `CC(=O)N[C@H]1CCN(c2ccc(C3=NO[C@H](CNS(=O)(=O)C(C)C)C3)cc2F)C1`, for which, in the data set on human MDR1, the efflux ratio at 2 µM came to 12.1. For the same molecule, in the data set listed under Mus musculus [6], the Emax worked out at 143%. Besides, the EC50 in data set [2] is less than 10 nM. In addition, the Papp A→B at 2 µM in [4] was determined as 3.93 ×10⁻⁶ cm/s. Also, in data set [7], the Kp at 0.5 h is 0.03.
As to `CC(C)S(=O)(=O)NCC1CC(c2ccc(-c3ccc(C#N)cc3)c(F)c2)=NO1` (racemic), the efflux ratio at 2 µM in the data set on human MDR1 amounted to 1.4. The Emax in the data set listed under Mus musculus [6] was found to be 124%. Moreover, the EC50 in [2] worked out at 2640 nM. Further, in [4], the Papp A→B at 2 µM is 16.7 ×10⁻⁶ cm/s.
Take `CC(C)S(=O)(=O)NCC1CC(c2ccc(-c3cccc(C#N)c3)c(F)c2)=NO1` (racemic): the efflux ratio at 2 µM with human MDR1 is 1.17. Further, the maximum response (Emax) in the data set filed under Mus musculus [6] was found to be 156%. Besides, the EC50 in data set [2] stood at 1850 nM. Further, in [4], the Papp A→B at 2 µM turned out to be 15.1 ×10⁻⁶ cm/s.
`CC(C)S(=O)(=O)NC[C@H]1CC(c2ccc(N3CCCC3)c(F)c2)=NO1`: the efflux ratio at 2 µM with human MDR1 is 1.6. For the same molecule, the Emax in the data set listed under Mus musculus [6] amounted to 114%. Besides, the EC50 in data set [2] came to 4690 nM. Further, the Ki in data set [5] worked out at 5760 nM.
Regarding `CC(C)S(=O)(=O)NC[C@@H]1CC(c2ccc(N3CCCC3)c(F)c2)=NO1`, the Ratio is recorded as 100 in data set [8] and 5 with Mus musculus [11]. Besides, the half-life in data set [9] and in data set [14] was 24 min throughout. Moreover, the Activity entry was “Toxic” in the data set on Rattus norvegicus [10], “Dose-dependent effect” with Mus musculus [13], “Toxic” with Rattus norvegicus [17] and “Toxic” in the data set with Mus musculus [18]. The result with Rattus norvegicus [12] and with Rattus norvegicus [20] was Active. Besides, the efflux ratio at 2 µM with human MDR1 came out at 1.45. Besides, in data set [15], the Kp amounted to 1.04. The Kp uu in data set [16] came out at 0.54. Besides, in the data set filed under Mus musculus [6], the Emax came out at 147%. The EC50 in [2] stood at 123 nM. The Papp A→B at 2 µM in [4] amounted to 18.6 ×10⁻⁶ cm/s. For the same molecule, the values for the fraction unbound in [19] and in data set [23] were 0.014 and 0.027, respectively. The selectivity ratio in [21] amounted to 500. Also, the result with Rattus norvegicus [22] and with Rattus norvegicus [24] was inactive. In addition, the Ki in [5] is less than 24 nM.
In the case of `CC(C)S(=O)(=O)NCC1CC(c2ccc(-c3ccccc3)c(F)c2)=NO1` (racemic), the Emax in the data set filed under Mus musculus [6] amounted to 138%. Besides, in data set [2], the EC50 came out at 3210 nM.
On the same counts, the results for `CC(C)S(=O)(=O)NCC1CC(c2ccc(N3CCCC3)c(F)c2)=NO1` (racemic) are 128% and 155 nM.
For `CC(C)S(=O)(=O)NCC1CC(c2ccc(-c3cccnc3)c(F)c2)=NO1` (racemic), in the data set with human MDR1, the efflux ratio at 2 µM turned out to be 0.84. Further, in the data set listed under Mus musculus [6], the Emax was determined as 157%. Also, the EC50 in data set [2] came out at 294 nM. Moreover, in [4], the Papp A→B at 2 µM was found to be 22 ×10⁻⁶ cm/s.
On to `CC(C)S(=O)(=O)NCC1CC(c2cccc(F)c2)=NO1` (racemic), for which the EC50 in data set [2] is greater than 31600 nM.

By Papp is commonly meant a coefficient for how fast a substance crosses the barrier. As usually defined, the EC50 is the midpoint of the concentration-response curve. For orientation: efflux ratio means the permeability from basolateral to apical divided by that in the opposite direction, in the common usage. The term Papp A→B denotes how fast a substance crosses the layer from the apical side. What is called Ki is a dissociation constant, usually derived from enzyme kinetics or from competition with a known ligand. Read a low Ki as tighter binding. Broadly, the Emax is the size of the effect at its maximum, as opposed to the concentration needed. In general, fraction unbound refers to free concentration divided by total concentration. A lower fraction unbound goes with extensive binding.
